Details of data set [1]: method as in earlier work. The following applies: heterocyclic ligand; cited from earlier work.
For data set [2], the system named is HT29 colon. Details: method as in PMID 36142383. Particulars: MTT assay, 72 h; cited from earlier work.
The next data set relates to MCF-7 breast. Details: method as in PMID 36142383. Particulars: MTT assay, 72 h; cited from earlier work. A general note: Formazan colour is commonly taken as a measure of viable cells.
The test system of a further data set is MIA pancreas. Also on record: method as in PMID 36142383. The following applies: MTT assay, 72 h; cited from earlier work.
A further data set has as its system BE2-C neuroblastoma. Details: method as in PMID 36142383. Particulars: MTT assay, 72 h; cited from earlier work.
Data set [3] concerns PC3 (prostate carcinoma) tumour xenografts. Details: method as in PMID 18997969. Particulars: PC3 xenograft mice; cited from earlier work.
In another data set the test system is A431 skin. Also on record: method as in PMID 36142383. The following applies: MTT assay, 72 h; cited from earlier work.
The subject of data set [4] is HT29 colon cells. As to the kind of experiment: ROS detection assay (DCFH-DA). The data set is classed as cell-based, human. The following applies: HT29 colon cells, treated at GI50 concentration (TBHP positive control 20 μM).
Data set [5] deals with non-tumour derived MCF10A breast line. Details: method as in PMID 36142383. The following applies: MTT assay, 72 h; cited from earlier work.
Data set [6] concerns ADDP-resistant ovarian variant. Details: method as in PMID 36142383. Particulars: MTT assay, 72 h; cited from earlier work.
Data set [7] has as its system panel of cell lines. Also on record: method as in PMID 36142383. Particulars: average over the cell lines tested, MTT assay, 72 h; cited from earlier work.
In a further data set the test system is A2780 ovarian. Also on record: method as in PMID 36142383. Particulars: MTT assay, 72 h; cited from earlier work.
Data set [8] has as its system Du145 prostate. Details: method as in PMID 36142383. The following applies: MTT assay, 72 h; cited from earlier work.
In the next data set the test system is SJ-G2 glioblastoma. Also on record: method as in PMID 36142383. The following applies: MTT assay, 72 h; cited from earlier work.
A further data set concerns H460 lung. Also on record: method as in PMID 36142383. The following applies: MTT assay, 72 h; cited from earlier work.
The test system of another data set is U87 glioblastoma. Also on record: method as in PMID 36142383. The following applies: MTT assay, 72 h; cited from earlier work.
Data set [9] has as its system murine leukaemia cell line (L1210). Particulars: cited from earlier work.
Data set [10] shares this test system. As to the kind of experiment: Cytotoxicity in L1210 (literature). The following applies: SS more cytotoxic than RR. It is filed as cell-based. From the text: Chirality is crucial to the biological activity of the studied complexes.
Data set [11] deals with HT29 colon. Put plainly: MTT growth inhibition assay, HT29. It is filed as cell-based, human.
Data set [12] concerns Du145 prostate. Put plainly: MTT growth inhibition assay, Du145. The data set is classed as cell-based, human. Particulars: Du145 prostate, ratio of GI50 values.
The test system of data set [13] is HT29 colon cells. Details: method as in PMID 36142383. Particulars: cited from earlier work.
Data set [14] has as its system ADDP-resistant ovarian variant. Put plainly: MTT growth inhibition assay, ADDP. The data set is classed as cell-based, human.
The test system of data set [15] is peritoneal carcinomatosis. Details: method as in PMID 20535526. Particulars: cited from earlier work.
The subject of data set [16] is panel of cell lines. As to the kind of experiment: MTT growth inhibition assay, whole panel of cell lines. It is filed as cell-based, human. The following applies: platinum(IV) precursor less cytotoxic than platinum(II) precursor, all cell lines.

These results are taken from article PMC9611758, “Bioactive Platinum(IV) Complexes Incorporating Halogenated Phenylacetates” (Molecules, 2022).

Read-outs that look alike come from different tables or passages of the source.

Take `Cc1c(C)c2cccnc2c2ncccc12` [5,6-Me2phen, 5,6-dimethyl-1,10-phenanthroline]: the pKa in [1] is recorded as 5.6.
In the case of `N.N.[Cl][Pt][Cl]` [Cisplatin, Cis-diamminedichloroplatinum(II)], the GI50 was 11.3 µM with HT29 colon [2]; 6.5 ± 0.8 µM in the data set on MCF-7 breast; 7.5 ± 1.3 µM with MIA pancreas; 1.9 ± 0.2 µM with BE2-C neuroblastoma; 2.4 ± 0.3 µM with A431 skin; 5.2 ± 0.52 µM in [5]. Further, the GI50 in data set [6] was 28 µM; with panel of cell lines [7], 5.84 ± 0.61 µM; with A2780 ovarian, 1 ± 0.1 µM; in the data set with Du145 prostate [8], 1.2 ± 0.1 µM; with SJ-G2 glioblastoma it was 0.4 ± 0.1 µM; in the data set on H460 lung, 0.9 ± 0.2 µM. Moreover, in the data set with U87 glioblastoma, the GI50 is 3.8 ± 1.1 µM. The “mean tumour weight in relation to the control group” value in [3] is listed as “comparable decrease in mean tumour weight”. For the same compound, the “ROS production 24 h” value in the data set on HT29 colon cells [4] (24 h) is reported as 221 ± 10 RFU. Also, the “ROS production 48 h” value in the data set on HT29 colon cells [4] (48 h) is given as 280 ± 12 RFU. The “ROS production 72 h” value with HT29 colon cells [4] (72 h) was 318 ± 9 RFU.
For the compound `Cc1c(C)c2c3c4c1=CC=C[N]4[Pt+2][N]3C=CC=2.N[C@@H]1CCCC[C@H]1N` [Complex 56MERR], the GI50 in data set [9] was 0.46 µM.
In the case of `Cc1c(C)c2cccnc2c2ncccc12.N[C@H]1CCCC[C@@H]1N.[Pt]` [Complex 56MESS, [Pt^II(5,6-Me2phen)(SS-DACH)]^2+], the GI50 in the data set on HT29 colon [2] was 0.01 ± 0.0016 µM; in the data set with MCF-7 breast, 0.093 ± 0.044 µM; in the data set with MIA pancreas, 0.013 ± 0.002 µM; in [9] it was 0.009 µM; in the data set with BE2-C neuroblastoma it was 0.059 ± 0.004 µM; in the data set with A431 skin it was 0.029 ± 0.001 µM. Besides, the GI50 in data set [5] was 0.016 ± 0.001 µM; in [6], 0.013 ± 0.002 µM; in the data set with panel of cell lines [7], 0.036 ± 0.01 µM; in the data set on A2780 ovarian, 0.076 ± 0.057 µM; in the data set on Du145 prostate [8] it was 0.0046 ± 0.0004 µM; in the data set on SJ-G2 glioblastoma it was 0.066 ± 0.022 µM. Moreover, the GI50 with H460 lung was 0.021 ± 0.002 µM; in the data set on U87 glioblastoma, 0.035 ± 0.0064 µM. Further, the “fold difference in cytotoxicity between RR-DACH and SS-DACH enantiomer” value in data set [10] came to 51 fold. The “fold more reactive compared to cisplatin” value in the data set with HT29 colon [11] (HT29 colon, ratio of GI50 values) was determined as 1100 fold. In addition, in the data set with Du145 prostate [12], the “fold increase in potency over carboplatin” value was about 3300 fold. For the same compound, the “fold increase in potency over oxaliplatin” value in the data set with Du145 prostate [12] was determined as 630 fold. For the same compound, in the data set on HT29 colon cells [13], the “ROS production 24 h” value is 240 ± 5 RFU. In addition, the “ROS production 48 h” value in the data set with HT29 colon cells [13] was 218 ± 3 RFU. For the same compound, the “ROS production 72 h” value in the data set on HT29 colon cells [13] was 255 ± 4 RFU. Further, the “fold more potent than cisplatin” value in data set [14] (ADDP-resistant ovarian variant, ratio of GI50 values) came to 2150 fold. The nephrotoxicity entry in data set [15] (at pharmacological doses) was “induced nephrotoxicity”. Besides, the tumour suppression response result in data set [15] (intravenous and intraperitoneal treatment) is recorded as “did not elicit a tumour suppression response”.
Turning to `C1=C[N]2[Pt+2][N]3C=CC=c4ccc(c2c43)=C1.N[C@@H]1CCCC[C@H]1N` [PHENRR], in data set [9], the concentration for 50% growth inhibition (GI50) is 1.5 µM.
For `N[C@H]1CCCC[C@@H]1N.[OH][Pt+2]1([OH])[N]2C=CC=c3ccc4c(c32)[N]1C=CC=4` [PHENSS(IV)(OH)2], the GI50 with HT29 colon [2] was 0.71 ± 0.3 µM; with MCF-7 breast, 16 µM; in the data set on MIA pancreas, 3.4 ± 2.2 µM; in the data set with BE2-C neuroblastoma it was 3 ± 0.53 µM; in the data set with A431 skin, 4.3 ± 0.53 µM; in data set [5] it was 1.7 ± 0.2 µM. The GI50 in data set [6] is 1.3 ± 0.35 µM; in the data set on panel of cell lines [7], 3.32 ± 0.88 µM; in the data set on A2780 ovarian, 0.8 ± 0.084 µM; in the data set on Du145 prostate [8], 0.31 ± 0.092 µM; in the data set on SJ-G2 glioblastoma it was 1.7 ± 0.35 µM; with H460 lung, 1.7 ± 0.2 µM. In addition, in the data set on U87 glioblastoma, the GI50 is 4.9 ± 0.61 µM. Further, in the data set on panel of cell lines [16], the “fold difference in average GI50 versus corresponding platinum(II) precursor” value is given as about 8 fold. Besides, the “ROS production 24 h” value in the data set with HT29 colon cells [13] is 144 ± 5 RFU. Further, the “ROS production 48 h” value with HT29 colon cells [13] is 273 ± 4 RFU. Also, in the data set with HT29 colon cells [13], the “ROS production 72 h” value is listed as 303 ± 1 RFU.
As to `C1=C[N]2[Pt+2][N]3C=CC=c4ccc(c2c43)=C1.N[C@H]1CCCC[C@@H]1N` [PHENSS, [Pt^II(phen)(SS-DACH)]^2+], the GI50 in the data set on HT29 colon [2] is 0.16 ± 0.045 µM; with MCF-7 breast, 1.5 ± 0.5 µM; with MIA pancreas, 0.2 ± 0.057 µM; in [9], 0.13 µM; in the data set on BE2-C neuroblastoma, 0.38 ± 0.046 µM; with A431 skin it was 0.48 ± 0.17 µM. Also, the GI50 was 0.3 ± 0.058 µM in data set [5]; 0.19 ± 0.047 µM in data set [6]; 0.434 ± 0.11 µM in the data set with panel of cell lines [7]; 0.23 ± 0.03 µM in the data set with A2780 ovarian; 0.1 ± 0.038 µM in the data set with Du145 prostate [8]; 0.33 ± 0.066 µM in the data set with SJ-G2 glioblastoma. Further, the GI50 is 0.36 ± 0.035 µM in the data set on H460 lung and 0.98 ± 0.27 µM in the data set on U87 glioblastoma. In addition, the “mean tumour weight in relation to the control group” value in data set [3] is listed as “comparable decrease in mean tumour weight”. Besides, in [3], the toxicity / mortality entry is on record as “no obvious signs of toxicity”. In [10], the “fold difference in cytotoxicity between RR-DACH and SS-DACH enantiomer” value was about 12 fold. Also, in the data set on HT29 colon [11], the “fold more reactive compared to cisplatin” value was found to be 70 fold. For the same compound, in the data set with HT29 colon cells [13], the “ROS production 24 h” value is 174 ± 2 RFU. Also, the “ROS production 48 h” value in the data set with HT29 colon cells [13] is 172 ± 9 RFU. Also, the “ROS production 72 h” value in the data set with HT29 colon cells [13] was 176 ± 7 RFU. Also, in [14], the “fold more potent than cisplatin” value is on record as about 150 fold.
In the case of `c1cnc2c(c1)ccc1cccnc12` [phen, 1,10-phenanthroline], the pKa in data set [1] was 4.9.

A word on the pKa: it is the negative logarithm of the acid dissociation constant. What is called GI50 is the concentration that inhibits growth by half.
